The source of these data is patent publication US7521596B2, “Method for controlling weeds” (Sumitomo Chemical Company, Limited, priority 2004, dated 2009).

For series [1], the system named is wild-type tobacco line SR-1. The experiment in a line: Spray test of the present herbicidal compound, wild-type tobacco (negative control). Format: in vivo, Nicotinia tabacum. As to conditions: wild type SR-1, score 0 (died) to 3; for average phytotoxicity score (sensitivity to carfentrazone-ethyl): applied as AIM HERBICIDE dry flowable; for average phytotoxicity score (sensitivity to flufenpyr-ethyl): about 2 weeks after spraying, average of 4 individuals. As for the experimental part:
(§1) Seeds of the homozygote lines selected in Example 4 (seeds of lines #17 and #25 of the recombinant tobacco to which plasmid pBI-NdG6-rSt-1609soy has been introduced, and seeds of the line 1584soy#16 of the recombinant tobacco to which plasmid pBI-NdG6-rSt-1584soy has been introduced) were aseptically seeded on MS agar medium containing 100 mg/L kanamycin. Also, seeds of the wild-type tobacco line SR-1 were aseptically seeded on MS agar medium. After about 2 weeks, germinated seedlings were observed.
(§2) Germinated individuals were transplanted to growing pots containing horicultural soil (Kureha Engei Baido manufactured by Kureha Chemical Industry Co., Ltd.), acclimated to the external environment in a growth chamber, then grown for about 2 weeks at 23° C., 23 hours of day length in a growth chamber. Thus obtained plants were applied to the spray test of the present herbicidal compound, flufenpyr-ethyl.
(§3) Flufenpyr-ethyl was dissolved in Solvesso cocktail mixed Solvesso 200 (manufactured by Valent) and Sorpol 3816 (manufactured Sumitomo Chemical Co., Ltd.) at the ratio of 87.5:10 such that flufenpyr-ethyl was respectively contained 0.89 mg or 1.78 mg in 0.5 mL Solvesso cocktail. The spray liquid of flufenpyr-ethyl was prepared as the aqueous solution containing the Solvesso cocktail of 2.5% concentration in which the compound was dissolved and Agri dex of 1% concentration (manufactured by Valent) as adjuvant.
(§4) Spray of the spray liquid to the plant above described was carried out, by using running automatic spray machine (manufactured by Nambasekkei), such that spray liquid 20 mL was sprayed to the recombinant tobacco seedlings put at 0.9 square meter of the sprayed area in a uniform way. After about 2 weeks, the sensitivity of the applied recombinant tobacco line to flufenpyr-ethyl was compared to the sensitivity of the wild-type tobacco line SR-1 to flufenpyr-ethyl. In the above spray test, 4 individuals of the recombinant tobacco were used with respect to each applied amount of flufenpyr-ethyl. The sensitivity of the recombinant tobacco to flufenpyr-ethyl was decided by scoring it based on the index below, and calculating the average of the score of 4 individuals with respect to each recombinant tobacco line and applied amount for it. The same spray test of wild-type line SR-1 was carried out as a negative control.
(§5) <Scoring Index Based on the Degree of Phytotoxicity as Dying of the Individual and Browning or Whitening of the Leaves or Stems Caused by Compound Spraying>
(§6) As to the homozygote line 1609soy#25 selected in Example 4 from among the recombinant tobacco lines to which a DNA having a nucleotide sequence encoding the amino acid sequence of SEQ ID NO: 1 has been introduced, and the wild-type tobacco line SR-1, their sensitivities to the compound (I), carfentrazone-ethyl and sulfentrazone were investigated according to the method described in Example 5 (evaluation by scoring index based on the degree of phytotoxicity as dying of the individual and browning or whitening of the leaves or stems caused by compound spraying). […]

Series [2] deals with recombinant tobacco line 1609soy#25 (cytochrome P450 of SEQ ID NO: 1 introduced). Put plainly: Spray test of the present herbicidal compound, recombinant tobacco line 1609soy#25. Format: in vivo, Nicotinia tabacum. To be noted: score 0 (died) to 3; for average phytotoxicity score (sensitivity to carfentrazone-ethyl): applied as AIM HERBICIDE dry flowable; for average phytotoxicity score (sensitivity to flufenpyr-ethyl): about 2 weeks after spraying, average of 4 individuals. As for the experimental part: as §1, §2, §3, §4, §5, §6

Series [3] has as its system wild-type soybean line (cv. Jack). The experiment in a line: Spray test of the present herbicidal compound, wild-type soybean (negative control). The class given is in vivo. To be noted: sprayed 21st day after seeding, scored 2 weeks after spraying, score 0 (died) to 3. On the procedure: (§7) Seeds of these lines were seeded and grown in growing pots containing horicultural soil (Kureha Engei Baido manufactured by Kureha Chemical Industry Co. Ltd.) When trifoliate leaves were developed after germination, the seedlings were transplanted to growing pots containing the soil prepared by mixing equal amount of the Kureha Engei Baido and field soil, and then grown in a greenhouse according to the method of Example 17 of WO0304370 to obtain seeds of T2 generation of each line. Among the obtained T2 generations, seeds of T2 generation of the line J18 (seeds of the recombinant soybean) were seeded in growing pots containing horicultural sail (Kureha Engei Baido manufactured by Kureha Chemical Industry Co., Ltd.) and grown. According to the above method described in Example 5, it was sprayed carfentrazone-ethyl to the seedling on the 21st day after seeding, and compared the sensitivity to carfentrazone-ethyl of the recombinant soybean with the sensitivity to carfentrazone-ethyl of wild-type soybean line (cv. Jack) at 2 weeks after spraying. The spray liquid of the above herbicidal compound was prepared as follows.
(§8) The spray liquid was prepared by diluting dry flowable preparation of carfentrazone-ethyl (AIM™ HERBICIDE manufactured by FMC, containing 40% (w/w) of carfentrazone-ethyl) with Agri dex (manufactured by Valent) 1% aqueous solution to be contained 1.79 mg, 3.57 mg or 7.14 mg of carfentrazone-ethyl in the spray liquid.
(§9) The sensitivity of the recombinant soybean to carfentrazone-ethyl was decided by scoring it based on the index below, and calculating the average of the scores with respect to each recombinant soybean line and applied amount for it. The same spray test of the wild-type soybean line (cv. Jack) was carried out as a negative control.
as §5

The subject of series [4] is recombinant soybean line J18 (cytochrome P450 of SEQ ID NO: 1 introduced). Put plainly: Spray test of the present herbicidal compound, recombinant soybean line J18. Format: in vivo. To be noted: for average phytotoxicity score (sensitivity to carfentrazone-ethyl): J18 (T2 generation), sprayed 21st day after seeding, scored 2 weeks after spraying, score 0 (died) to 3. On the procedure: as §7, §8, §9, §5

The subject of series [5] is recombinant tobacco line 1609soy#17 (cytochrome P450 of SEQ ID NO: 1 introduced). The experiment in a line: Spray test of the present herbicidal compound, recombinant tobacco line 1609soy#17. The class given is in vivo, Nicotinia tabacum. To be noted: about 2 weeks after spraying, average of 4 individuals, score 0 (died) to 3. As for the experimental part:
as §1, §2
(§10) Flufenpyr-ethyl was dissolved in Solvesso cocktail mixed Solvesso 200 (manufactured by Valent) and Sorpol 3816 (manufactured Sumitomo Chemical Co., Ltd.) at the ratio of 87.5:10 such that flufenpyr-ethyl was respectively contained 0.89 mg or 1.78 mg in 0.5 mL Solvesso cocktail. […]

For series [6], the system named is recombinant tobacco line 1584soy#16 (cytochrome P450 of SEQ ID NO: 2 introduced). The experiment in a line: Spray test of the present herbicidal compound, recombinant tobacco line 1584soy#16. The class given is in vivo, Nicotinia tabacum. As to conditions: about 2 weeks after spraying, average of 4 individuals, score 0 (died) to 3. On the procedure: as §1, §2, §10

In the case of `CCOC(=O)C(Cl)Cc1cc(-n2nc(C)n(C(F)F)c2=O)c(F)cc1Cl` (stereo not drawn) [carfentrazone-ethyl], the “average phytotoxicity score (sensitivity to carfentrazone-ethyl)” value in series [1] (0.446 mg/20 mL spray liquid) is 1.0; in series [1] (0.893 mg/20 mL spray liquid), 0.0; in series [1] (4.46 mg/20 mL spray liquid), 0.0; in series [2] (0.446 mg/20 mL spray liquid) it was 2.5; in series [2] (0.893 mg/20 mL spray liquid), 1.8; in series [2] (4.46 mg/20 mL spray liquid) it was 1.5. The “average phytotoxicity score (sensitivity to carfentrazone-ethyl)” value in series [3] (1.79 mg/20 mL spray liquid) is listed as 1.0; in series [3] (3.57 mg/20 mL spray liquid), 0.9; in series [3] (7.14 mg/20 mL spray liquid) it was 0.3; in series [4] (1.79 mg/20 mL spray liquid), 1.8; in series [4] (3.57 mg/20 mL spray liquid) it was 1.4; in series [4] (7.14 mg/20 mL spray liquid), 0.9. For the same compound, the “phytotoxicity / resistance as compared to the wild-type plant cv. Jack” value in series [4] (line J18, 1.79, 3.57 or 7.14 mg in the spray liquid) is “the phytotoxicity was reduced and remarkable improvement of the resistance was recognized”.

Take `CCOC(=O)COc1cc(-n2ncc(C(F)(F)F)c(C)c2=O)c(F)cc1Cl` [flufenpyr-ethyl]: the “average phytotoxicity score (sensitivity to flufenpyr-ethyl)” value turned out to be 1.7 in series [1] (0.89 mg/20 mL spray liquid); 0.0 in series [1] (1.78 mg/20 mL spray liquid); 3.0 in series [5] (0.89 mg/20 mL spray liquid); 3.0 in series [5] (1.78 mg/20 mL spray liquid); 3.0 in series [2] (0.89 mg/20 mL spray liquid); 3.0 in series [2] (1.78 mg/20 mL spray liquid). The “average phytotoxicity score (sensitivity to flufenpyr-ethyl)” value in series [6] (0.89 mg/20 mL spray liquid) and in series [6] (1.78 mg/20 mL spray liquid) was 3.0 throughout.
